From patent US20240287080A1 (IDEAYA Biosciences Inc., priority 2021, published 2024)

Target: T1, Pol theta (1-899) (Homo sapiens, UniProt O75417)
T1 construct: Pol theta (1-899) (5 nM) in assay buffer
Assay: Pol theta ATPase activity, NADH oxidation-coupled enzymatic assay (ATPase NADH coupling: Standard Screening: hPolQ)
Assay type: biochemical
Settings: Pol theta (1-899) 5 nM
How it was run: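 Rates of ATP hydrolysis taken from 60-min A340 traces of NADH oxidation via PK/LDH coupling, then fit four-parameter for IC50, Hill slope and max inhibition. Enzyme (5 nM, 1-899) and compounds preincubated 15 min before ATP 100 μM and 50-thymine ssDNA 300 nM (stock, equal volume added).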

[1] = NADH oxidation-coupled ATPase assay, compounds of Table 3

T1 sequence (O75417 1-899): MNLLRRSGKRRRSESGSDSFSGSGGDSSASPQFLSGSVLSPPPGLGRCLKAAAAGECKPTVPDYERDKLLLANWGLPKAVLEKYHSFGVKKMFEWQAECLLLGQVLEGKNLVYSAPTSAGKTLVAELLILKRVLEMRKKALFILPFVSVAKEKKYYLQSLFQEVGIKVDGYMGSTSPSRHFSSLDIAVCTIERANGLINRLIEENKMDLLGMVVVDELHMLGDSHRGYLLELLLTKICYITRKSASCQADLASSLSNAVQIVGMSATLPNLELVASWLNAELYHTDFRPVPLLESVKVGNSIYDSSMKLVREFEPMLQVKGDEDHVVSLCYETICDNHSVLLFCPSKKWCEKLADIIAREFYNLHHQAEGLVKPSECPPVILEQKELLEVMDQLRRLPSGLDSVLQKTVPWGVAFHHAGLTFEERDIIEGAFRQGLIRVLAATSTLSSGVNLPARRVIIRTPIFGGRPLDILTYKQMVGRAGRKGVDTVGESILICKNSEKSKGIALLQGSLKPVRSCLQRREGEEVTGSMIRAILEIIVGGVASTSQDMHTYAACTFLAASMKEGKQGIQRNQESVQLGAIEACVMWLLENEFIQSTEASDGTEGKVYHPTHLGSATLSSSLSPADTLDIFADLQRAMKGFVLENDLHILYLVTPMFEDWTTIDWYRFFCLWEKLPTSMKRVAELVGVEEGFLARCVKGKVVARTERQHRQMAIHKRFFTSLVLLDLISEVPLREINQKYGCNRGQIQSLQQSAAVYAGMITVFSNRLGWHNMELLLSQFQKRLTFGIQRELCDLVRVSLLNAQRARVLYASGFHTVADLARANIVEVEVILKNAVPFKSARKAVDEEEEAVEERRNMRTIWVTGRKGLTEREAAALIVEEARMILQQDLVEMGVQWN

IC50 [1] [nM] | SMILES | further results
≤ 200 | COc1nnc(NC(=O)c2cnc(C(F)F)cc2-c2cc(Cl)ncc2OC)s1 [Example 281, 2′-chloro-6-(difluoromethyl)-5′-methoxy-N-(5-methoxy-1,3,4-thiadiazol-2-yl)-[4,4′-bipyridine]-3-carboxamide] | –
≤ 200 | COc1nnc(NC(=O)c2cc(N3CCC3)ncc2-c2cc(Cl)ncc2OC)s1 [Example 323, 6-(azetidin-1-yl)-2′-chloro-5′-methoxy-N-(5-methoxy-1,3,4-thiadiazol-2-yl)-[3,4′-bipyridine]-4-carboxamide] | –
1000 to 10000 | COc1nnc(NC(=O)c2ccnc(C#N)c2-c2cc(Cl)ncc2OC)s1 [Example 289, 2′-chloro-2-cyano-5′-methoxy-N-(5-methoxy-1,3,4-thiadiazol-2-yl)-[3,4′-bipyridine]-4-carboxamide] | –
1000 to 10000 | COc1nnc(NC(=O)c2cnc(C)cc2-c2cc(C)nn2C)s1 [Example 420, 4-(1,3-dimethyl-1H-pyrazol-5-yl)-N-(5-methoxy-1,3,4-thiadiazol-2-yl)-6-methylpyridine-3-carboxamide] | –
1000 to 10000 | COc1nnc(NC(=O)c2cnc(C)cc2-c2ccc(F)c(OC)c2)s1 [Example 330, 4-(4-fluoro-3-methoxyphenyl)-N-(5-methoxy-1,3,4-thiadiazol-2-yl)-6-methylpyridine-3-carboxamide] | –

Second part, the compound before the results:

SMILES | IC50 [1] [nM] | further results
COc1nnc(NC(=O)c2cnc(C)cc2-c2ccc(C(=O)N(C)C)cc2)s1 [Example 369, 4-[4-(dimethylcarbamoyl)phenyl]-N-(5-methoxy-1,3,4-thiadiazol-2-yl)-6-methylpyridine-3-carboxamide] | 1000 to 10000 | –
COc1nnc(NC(=O)c2cnc(C)cc2-c2ccc3[nH]ccc3c2)s1 [Example 352, 4-(1H-indol-5-yl)-N-(5-methoxy-1,3,4-thiadiazol-2-yl)-6-methylpyridine-3-carboxamide] | 1000 to 10000 | –
COc1cnc(Cl)cc1-c1cc(C)ncc1C(=O)Nc1nnc(O[C@H]2CC[C@@](C)(O)CC2)s1 (single isomer, unassigned) [Example 141, 2′-chloro-N-(5-(((1s,4s)-4-hydroxy-4-methylcyclohexyl)oxy)-1,3,4-thiadiazol-2-yl)-5′-methoxy-6-methyl-(4,4′-bipyridine)-3-carboxamide] | – | IC50 (Table 5, ATP, dT50 ssDNA): ≤ 200 nM
COc1nnc(NC(=O)c2cnc(C)cc2-c2cc(Br)c([S@+](C)[O-])cc2OC)s1 (single isomer, unassigned) [Example 322] | 500 to 1000 | –
COc1nnc(NC(=O)c2cnc(C)cc2-c2cnc3[nH]ncc3c2)s1 [Example 357, N-(5-methoxy-1,3,4-thiadiazol-2-yl)-6-methyl-4-(1H-pyrazolo[3,4-b]pyridin-5-yl)nicotinamide] | 1000 to 10000 | –
COCCOc1nnc(NC(=O)c2ccncc2-c2ccccc2OC)s1 [Example 78] | – | IC50 (Table 4, ATP, dT50 ssDNA): 500 to 1000 nM
COc1cnc(Cl)cc1-c1cc(C)ncc1C(=O)Nc1nnc(O[C@@H]2CCC[C@@](C)(O)C2)s1 (single isomer, unassigned) [Example 182] | – | IC50 (Table 5, ATP, dT50 ssDNA): ≤ 200 nM
COc1cnc(Cl)cc1-c1cc(C)ncc1C(=O)Nc1nnc(O[C@H]2CO[C@@H](C)C2)s1 (single isomer, unassigned) [Example 191] | – | IC50 (Table 5, ATP, dT50 ssDNA): ≤ 200 nM
COc1nnc(NC(=O)c2cnc(C)cc2-c2ccc(C(C)(C)C)cc2)s1 [Example 356, 4-(4-(tert-butyl)phenyl)-N-(5-methoxy-1,3,4-thiadiazol-2-yl)-6-methylnicotinamide] | 1000 to 10000 | –
COc1cnc(Cl)cc1-c1cc(C)ncc1C(=O)Nc1nnc(OCC(C)(F)F)s1 [Example 20, 6′-chloro-N-(5-(2,2-difluoropropoxy)-1,3,4-thiadiazol-2-yl)-3′-methoxy-6-methyl-4,4′-bipyridine-3-carboxamide] | – | IC50 (Table 4, ATP, dT50 ssDNA): ≤ 200 nM
COc1nnc(NC(=O)c2cnc(C)cc2-c2cnc(C#N)nc2)s1 [Example 444, 4-(2-cyanopyrimidin-5-yl)-N-(5-methoxy-1,3,4-thiadiazol-2-yl)-6-methylnicotinamide] | 1000 to 10000 | –
COc1nnc(NC(=O)c2cn(C)nc2-c2cc(Cl)ncc2OC)s1 [Example 110, 3-(2-chloro-5-methoxypyridin-4-yl)-N-(5-methoxy-1,3,4-thiadiazol-2-yl)-1-methyl-1H-pyrazole-4-carboxamide] | – | IC50 (Table 5, values given as bound, ATP, dT50 ssDNA): > 10000 nM
COc1nnc(NC(=O)c2cnc(C)cc2-c2cnn3c2OCC3)s1 [Example 126, 4-(2,3-dihydropyrazolo(5,1-b)oxazol-7-yl)-N-(5-methoxy-1,3,4-thiadiazol-2-yl)-6-methylnicotinamide] | – | IC50 (Table 5, ATP, dT50 ssDNA): 1000 to 10000 nM
COc1nnc(NC(=O)c2cnc(C)cc2-c2cc(C3CC3)nn2C2CCCCO2)s1 (centres unmarked) [Example 350, 4-(3-cyclopropyl-1-(tetrahydro-2H-pyran-2-yl)-1H-pyrazol-5-yl)-N-(5-methoxy-1,3,4-thiadiazol-2-yl)-6-methylnicotinamide] | 1000 to 10000 | –
COc1nnc(NC(=O)c2cnc(C)cc2-c2ccc(C#N)nc2C)s1 [Example 434, 6-cyano-N-(5-methoxy-1,3,4-thiadiazol-2-yl)-2,6′-dimethyl-[3,4′-bipyridine]-3′-carboxamide] | 1000 to 10000 | –
COc1nnc(NC(=O)c2cnc(C)cc2-c2cc(Cl)ccc2OC(F)F)s1 [Example 33, 4-(5-chloro-2-(difluoromethoxy)phenyl)-N-(5-methoxy-1,3,4-thiadiazol-2-yl)-6-methylnicotinamide] | – | IC50 (Table 4, ATP, dT50 ssDNA): ≤ 200 nM
COc1nnc(NC(=O)c2cnc(C)cc2-c2ccc(OC(F)(F)F)cc2)s1 [Example 376, N-(5-methoxy-1,3,4-thiadiazol-2-yl)-6-methyl-4-[4-(trifluoromethoxy)phenyl]pyridine-3-carboxamide] | 1000 to 10000 | –
COc1nnc(NC(=O)c2cnc(C)cc2-c2ccnc3nccn23)s1 [Example 88, 4-(imidazo(1,2-a)pyrimidin-5-yl)-N-(5-methoxy-1,3,4-thiadiazol-2-yl)-6-methylnicotinamide] | – | IC50 (Table 5, ATP, dT50 ssDNA): 1000 to 10000 nM
COc1nnc(NC(=O)c2cnc(C)cc2-c2cc(C)ncc2OC(F)F)s1 [Example 52, 5′-(difluoromethoxy)-N-(5-methoxy-1,3,4-thiadiazol-2-yl)-2′,6-dimethyl-(4,4′-bipyridine)-3-carboxamide] | – | IC50 (Table 4, ATP, dT50 ssDNA): ≤ 200 nM
COc1cnc(Cl)cc1-c1cc(C)ncc1C(=O)Nc1nnc(OC2([C@@H]3CCOC3)CC2)s1 (single isomer, unassigned) [Example 299] | ≤ 200 | –
COc1cnc(Cl)cc1-c1cc(C)ncc1C(=O)Nc1nnc(O[C@H]2CO[C@H](C)C2)s1 (single isomer, unassigned) [Example 192] | – | IC50 (Table 5, ATP, dT50 ssDNA): ≤ 200 nM
COc1nnc(NC(=O)c2cnc(C)cc2-c2cc(Cl)c([S+](C)[O-])cc2OC)s1 (centres unmarked) [Example 231, 4-(5-chloro-2-methoxy-4-(methylsulfinyl)phenyl)-N-(5-methoxy-1,3,4-thiadiazol-2-yl)-6-methylnicotinamide] | – | IC50 (Table 5, ATP, dT50 ssDNA): ≤ 200 nM
COc1nnc(NC(=O)c2cnc(C)cc2-c2ccc(C(N)=O)cc2)s1 [Example 353, 4-(4-carbamoylphenyl)-N-(5-methoxy-1,3,4-thiadiazol-2-yl)-6-methylpyridine-3-carboxamide] | 1000 to 10000 | –
COc1nnc(NC(=O)c2cnc(C)cc2-c2ccc3c(c2)OCO3)s1 [Example 409, 4-(2H-1,3-benzodioxol-5-yl)-N-(5-methoxy-1,3,4-thiadiazol-2-yl)-6-methylpyridine-3-carboxamide] | 500 to 1000 | –
